Experimental findings from ChEMBL document CHEMBL4011656, “Discovery and Optimization of Chromeno[2,3-c]pyrrol-9(2H)-ones as Novel Selective and Orally Bioavailable Phosphodiesterase 5 Inhibitors for the Treatment of Pulmonary Arterial Hypertension” (J Med Chem, 2017) are described below.

Active and inactive are the calls of the source. The calls are words filed in the database; no cut-off is given here.

Data set [1] in a line: Tmax in Sprague-Dawley rat at 5 mg/kg, po by LC-MS/MS analysis. Type of data set: ADME, organism-based. The settings on record: in vivo.
For data set [2], the target named is High affinity cAMP-specific and IBMX-insensitive 3',5'-cyclic phosphodiesterase 8A (Homo sapiens, UniProt O60658). The data set is described as follows: Inhibition of PDE8A1 (480 to 820 residues) (unknown origin) using [3H]cGMP or [3H]cAMP as substrate after 15 mins by liquid scintillation counting method.
Data set [3] in a line: Half life in human microsomes at 0.5 uM. The settings on record: liver microsomes. Type of data set: ADME, microsome. Background: Microsomes from liver hold many membrane-bound enzymes, among them those of drug oxidation.
Data set [4] concerns Mus musculus. The data set is described as follows: Acute toxicity in Kunming mouse assessed as mortality at 1000 to 1500 mg/kg, po administered as single dose measured up to 2 weeks post dose. The settings on record: in vivo, 336 h. Type of data set: organism-based.
Data set [5] is described as follows: Apparent clearance in human liver microsomes at 0.5 uM. The following applies: read-out: CLH(app). It is filed as ADME, microsome.
The test system of data set [6] is Mus musculus. Briefly: Acute toxicity in Kunming mouse assessed as effect on water consumption at 1000 to 1500 mg/kg, po administered as single dose measured up to 2 weeks post dose. It is filed as organism-based. The settings on record: in vivo, 336 h.
Data set [7] addresses High affinity cGMP-specific 3',5'-cyclic phosphodiesterase 9A (Homo sapiens, UniProt O76083). Briefly: Inhibition of PDE9A2 (181 to 506 residues) (unknown origin) expressed in Escherichia coli BL21(DE3) using [3H]cGMP or [3H]cAMP as substrate after 15 mins by liquid scintillation counting method.
Data set [8] deals with Rattus norvegicus. The data set is described as follows: Reduction in MCT-induced increase in right ventricle hypertrophy index in Wistar rat model of monocrotaline pulmonary arterial hypertension at 5 mg/kg, po for 3 weeks. It is filed as functional, organism-based.
The target of data set [9] is 3',5'-cyclic-AMP phosphodiesterase 4D (Homo sapiens, UniProt Q08499). The data set is described as follows: Inhibition of PDE4D2 (86 to 413 residues) (unknown origin) expressed in Escherichia coli BL21(DE3) using [3H]cAMP or [3H]cGMP as substrate after 15 mins by liquid scintillation counting method.
Data set [10] has as its system Liver. The data set is described as follows: Intrinsic clearance in rat liver microsomes at 0.5 uM. Type of data set: ADME, microsome.
For data set [11], the target named is Rod cGMP-specific 3',5'-cyclic phosphodiesterase subunit alpha (Homo sapiens, UniProt P16499). The data set is described as follows: Inhibition of PDE6A (484 to 817 residues) (unknown origin) expressed in Escherichia coli BL21(DE3) using [3H]cGMP or [3H]cAMP as substrate after 15 mins by liquid scintillation counting method.
The subject of data set [12] is Mus musculus. Briefly: Acute toxicity in Kunming mouse assessed as poisoning symptoms at 1000 to 1500 mg/kg, po administered as single dose measured up to 2 weeks post dose. It is filed as organism-based. The settings on record: in vivo, 336 h.
Data set [13] in a line: Half life in Sprague-Dawley rat at […], iv by LC-MS/MS analysis. The settings on record: in vivo. Type of data set: ADME, organism-based.
In data set [14] the target is T1, Cytochrome P450 2C8 (Homo sapiens, UniProt P10632).
T1 sequence (P10632 whole entry): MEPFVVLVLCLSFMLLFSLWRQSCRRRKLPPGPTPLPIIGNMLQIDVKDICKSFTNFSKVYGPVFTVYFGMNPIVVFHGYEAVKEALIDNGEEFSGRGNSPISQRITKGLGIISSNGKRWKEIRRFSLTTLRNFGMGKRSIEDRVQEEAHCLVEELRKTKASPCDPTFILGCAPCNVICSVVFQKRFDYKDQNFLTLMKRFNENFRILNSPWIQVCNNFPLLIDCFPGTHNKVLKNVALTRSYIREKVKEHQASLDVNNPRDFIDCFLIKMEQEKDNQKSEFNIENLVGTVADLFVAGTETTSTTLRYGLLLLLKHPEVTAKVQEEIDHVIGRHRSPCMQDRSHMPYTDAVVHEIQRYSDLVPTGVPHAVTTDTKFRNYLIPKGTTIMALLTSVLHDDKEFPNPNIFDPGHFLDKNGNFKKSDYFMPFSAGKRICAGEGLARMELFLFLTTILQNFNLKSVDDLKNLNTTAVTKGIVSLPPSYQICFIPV
Briefly: Inhibition of CYP2C8 in human microsomes in presence of NADPH. Type of data set: ADME.

Chain of Rod cGMP-specific 3',5'-cyclic phosphodiesterase subunit alpha (P16499 whole entry, the tested form may be a part): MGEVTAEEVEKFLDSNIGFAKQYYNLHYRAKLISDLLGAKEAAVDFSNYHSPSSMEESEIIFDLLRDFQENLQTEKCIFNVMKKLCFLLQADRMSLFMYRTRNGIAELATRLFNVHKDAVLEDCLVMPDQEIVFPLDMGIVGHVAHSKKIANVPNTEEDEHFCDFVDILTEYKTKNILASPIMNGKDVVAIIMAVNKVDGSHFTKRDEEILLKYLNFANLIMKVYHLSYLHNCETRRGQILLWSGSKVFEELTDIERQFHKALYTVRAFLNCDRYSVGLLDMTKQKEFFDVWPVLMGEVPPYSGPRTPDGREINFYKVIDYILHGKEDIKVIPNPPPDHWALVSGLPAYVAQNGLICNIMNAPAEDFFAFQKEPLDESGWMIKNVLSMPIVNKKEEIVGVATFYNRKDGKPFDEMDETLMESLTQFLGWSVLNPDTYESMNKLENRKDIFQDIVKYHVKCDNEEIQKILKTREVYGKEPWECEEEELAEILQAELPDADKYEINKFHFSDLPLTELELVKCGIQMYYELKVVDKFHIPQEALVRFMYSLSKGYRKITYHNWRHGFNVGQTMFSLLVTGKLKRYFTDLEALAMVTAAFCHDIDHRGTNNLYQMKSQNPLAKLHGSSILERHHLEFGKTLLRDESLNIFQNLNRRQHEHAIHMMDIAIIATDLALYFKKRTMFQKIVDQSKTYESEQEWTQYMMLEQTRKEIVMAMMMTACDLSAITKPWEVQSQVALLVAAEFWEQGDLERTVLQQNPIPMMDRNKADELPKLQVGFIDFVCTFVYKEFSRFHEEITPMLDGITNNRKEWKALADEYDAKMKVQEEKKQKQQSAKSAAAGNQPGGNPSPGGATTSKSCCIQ
Chain of High affinity cGMP-specific 3',5'-cyclic phosphodiesterase 9A (O76083 whole entry, the tested form may be a part): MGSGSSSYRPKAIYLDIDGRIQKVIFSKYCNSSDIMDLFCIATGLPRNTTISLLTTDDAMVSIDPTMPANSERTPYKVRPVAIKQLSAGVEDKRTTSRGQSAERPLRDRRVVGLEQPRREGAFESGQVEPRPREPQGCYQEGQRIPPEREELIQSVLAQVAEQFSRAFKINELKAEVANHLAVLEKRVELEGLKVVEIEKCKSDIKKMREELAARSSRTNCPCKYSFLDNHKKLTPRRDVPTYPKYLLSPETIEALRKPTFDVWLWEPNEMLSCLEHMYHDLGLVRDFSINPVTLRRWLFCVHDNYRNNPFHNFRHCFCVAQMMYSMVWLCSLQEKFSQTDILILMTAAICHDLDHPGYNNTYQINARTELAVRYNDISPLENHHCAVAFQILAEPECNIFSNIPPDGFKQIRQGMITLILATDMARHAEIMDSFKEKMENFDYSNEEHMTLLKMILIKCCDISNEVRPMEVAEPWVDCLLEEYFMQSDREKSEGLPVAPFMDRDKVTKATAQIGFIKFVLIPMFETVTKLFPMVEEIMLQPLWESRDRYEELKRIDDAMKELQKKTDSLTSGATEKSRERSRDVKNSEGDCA
Chain of 3',5'-cyclic-AMP phosphodiesterase 4D (Q08499 whole entry, the tested form may be a part): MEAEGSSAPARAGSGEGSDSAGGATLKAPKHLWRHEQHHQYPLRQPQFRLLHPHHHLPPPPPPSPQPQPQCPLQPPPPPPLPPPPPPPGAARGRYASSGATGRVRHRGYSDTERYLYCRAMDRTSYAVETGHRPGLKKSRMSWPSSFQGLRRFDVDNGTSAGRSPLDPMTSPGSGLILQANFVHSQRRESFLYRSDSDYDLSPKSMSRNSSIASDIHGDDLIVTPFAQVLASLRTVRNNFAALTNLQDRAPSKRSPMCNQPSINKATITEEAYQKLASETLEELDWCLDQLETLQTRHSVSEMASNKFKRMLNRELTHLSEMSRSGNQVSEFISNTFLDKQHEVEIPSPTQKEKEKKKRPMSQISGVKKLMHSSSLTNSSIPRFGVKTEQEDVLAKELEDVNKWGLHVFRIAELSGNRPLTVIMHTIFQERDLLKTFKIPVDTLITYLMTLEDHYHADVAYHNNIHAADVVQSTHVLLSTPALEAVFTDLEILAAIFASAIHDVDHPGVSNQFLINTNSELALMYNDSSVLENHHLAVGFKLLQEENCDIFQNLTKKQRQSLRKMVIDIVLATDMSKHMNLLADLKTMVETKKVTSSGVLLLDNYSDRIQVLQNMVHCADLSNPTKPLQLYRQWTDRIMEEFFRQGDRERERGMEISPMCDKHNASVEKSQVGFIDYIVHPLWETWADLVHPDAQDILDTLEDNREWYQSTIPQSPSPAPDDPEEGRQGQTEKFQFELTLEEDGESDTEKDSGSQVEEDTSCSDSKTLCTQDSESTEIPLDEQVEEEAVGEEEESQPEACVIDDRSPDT
Chain of High affinity cAMP-specific and IBMX-insensitive 3',5'-cyclic phosphodiesterase 8A (O60658 whole entry, the tested form may be a part): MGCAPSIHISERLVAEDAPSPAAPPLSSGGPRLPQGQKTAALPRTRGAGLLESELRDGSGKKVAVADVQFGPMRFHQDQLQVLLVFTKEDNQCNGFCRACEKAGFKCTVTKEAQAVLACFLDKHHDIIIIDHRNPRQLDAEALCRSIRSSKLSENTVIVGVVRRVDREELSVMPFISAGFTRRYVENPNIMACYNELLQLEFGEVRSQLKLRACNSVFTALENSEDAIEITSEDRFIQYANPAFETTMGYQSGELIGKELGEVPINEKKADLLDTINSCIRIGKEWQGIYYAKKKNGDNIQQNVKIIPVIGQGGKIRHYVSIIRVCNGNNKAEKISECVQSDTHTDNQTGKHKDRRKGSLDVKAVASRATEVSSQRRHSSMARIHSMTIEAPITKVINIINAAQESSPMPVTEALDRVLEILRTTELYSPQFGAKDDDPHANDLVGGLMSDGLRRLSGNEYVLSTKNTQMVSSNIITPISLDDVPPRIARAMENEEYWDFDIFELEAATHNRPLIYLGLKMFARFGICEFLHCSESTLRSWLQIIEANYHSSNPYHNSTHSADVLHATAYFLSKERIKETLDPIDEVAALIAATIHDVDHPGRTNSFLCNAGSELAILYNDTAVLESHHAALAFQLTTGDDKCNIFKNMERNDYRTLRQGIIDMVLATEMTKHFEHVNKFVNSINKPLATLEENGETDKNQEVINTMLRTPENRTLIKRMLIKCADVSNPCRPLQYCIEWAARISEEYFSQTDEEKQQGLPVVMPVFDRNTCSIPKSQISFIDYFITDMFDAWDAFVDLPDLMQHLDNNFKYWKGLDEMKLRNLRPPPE

As for `O=c1c2ccccc2oc2c(Cc3ccc4c(c3)OCO4)[nH]c(-c3nccs3)c12`, the time to peak (Tmax) in [1] is 4 h. Besides, the IC50 is 6.22 µM in data set [2]; greater than 10 µM in [7]; 2.77 µM in data set [9]; 0.058 µM in data set [11]; greater than 25 µM in data set [14]. The half-life at 0.5 µM in data set [3] turned out to be 0.933 h. Further, the Activity entry in data set [4], in data set [6] and in [12] was “Non-Toxic” throughout. Moreover, in [5], the CLint scaled at 0.5 µM is 23.9 mL/min/kg. Also, the outcome in data set [8] was Active. For the same molecule, the CLH in [10] was 56.1 µL/min/mg. In data set [13], this molecule showed a half-life of 6.02 h.

The term Tmax denotes the time at which the peak concentration occurs. The term IC50 denotes the midpoint of a concentration-inhibition curve. A word on the half-life: it is the time in which the quantity being followed falls by half. Read a high half-life as slow loss.
